Where no end group is shown, it is not given here. [ ]: non-standard residue; d: D form. pGlu = O=C1CC[C@@H](C(=O)O)N1; Nle = CCCC[C@H](N)C(=O)O
Test system: Peripheral blood mononuclear cells (PBMCs)
Assay: Cytokine release assay (multiplex bead assay IL-10, IL-13, IFN-g) and analysis of population coverage
Format: cell-based, human
Conditions: for % responders: cytokine release greater than 50 pg/ml in one or more of IL-13, IL-10, IFN-g, 50 mould allergic subjects, 100 μg/ml, 5 days
Protocol: Polypeptides for use in this assay were manufactured at small scale (approximately 10 mg batch size, non-GMP). […] Polypeptides were added to wells in a volume of 100 μl containing polypeptides at a concentration of […], such that subsequent addition of 100 μl of cells would create a final assay concentration of 100 μg/ml.
Peripheral blood mononuclear cells (PBMCs) were isolated from heparinised blood by Ficoll density gradient centrifugation. […] Following stimulation, culture supernatants (100 μl) were harvested for testing by multiplex bead assay.
Multiplex cytokine bead assays (IL-10, IL-13, Interferon gamma (IFN-g)) were performed on thawed culture supernatants according to the manufacturer's instructions. Single measurements were performed for each culture supernatant sample. After completion of the multiplex assay, individual cytokine levels were determined by interpolation from the standard curve generated in the assay. A positive result was taken as a cytokine release of greater than 50 pg/ml in one or more of the IL-13, IL-10 and IFN-g assays. The number of responders out of 50 mould allergic subjects tested was calculated for each polypeptide for the three cytokines.
An analysis of population coverage was carried out to determine what polypeptides could advantageously capture additional responses from the population when included in combination with other peptides. The number of subjects in the population displaying IL-13 or IFN-g responses to at least one, two or three polypeptides included in a given combination was analysed.
An analysis of population coverage was then carried out for additional combinations of polypeptides identified as having preferable pharmaceutical development characteristics. The number of subjects in the population displaying IL-13 or IFN-g responses to at least one, two or three polypeptides included in a given combination was analysed.

Row | Substance | % responders [%] | individuals showing a response (responders out of 50 individuals)
1 | TLYRPRDLLSLLNE [Alt08] | 10 | 
2 | PyrKLKALAKKTYGQ ([pGlu]KLKALAKKTYGQ) [Alt13] | 40 | 
3 | IFRSLSKEEPDY [Alt04A] | 4 | 
4 | GYTGKIKIA-Nle-DVASSE (GYTGKIKIA[Nle]DVASSE) [Alt15A] | 42 | 
5 | AEVYQKLKALAKK [Alt12] | 38 | 
6 | KEYQKIFPSIQVI [Alt09] | 6 | 
7 | IEKLRSNITVQYDI [Alt33] | 44 | 
8 | YEKYRRVVRAGVKV [Alt34] | 38 | 
9 | KKVS-Nle-AIAKAAAAEK (KKVS[Nle]AIAKAAAAEK) [Alt11A] | 44 | 
10 | LQFTLYRPRDLLS [Alt07] | 10 | 
11 | SYNVAKAGSIHLAK [Alt22A] | 44 | 
12 | KKDAYITLVTLPKSS [Alt03A] | 16 | 
13 | WSWKIGPAIATGNT [Alt28] | 52 | 
14 | GWGVMVSHRSGET [Alt14] | 44 | 
15 | KDAYITLVTLPKSS [Alt03] | 22 | 
16 | SAFRSIEPELTVY [Alt10] | 42 | 
17 | GLHFRERKTGSLVIT [Alt21] | 38 | 
18 | SAKR-Nle-KVAFKLDIEK (SAKR[Nle]KVAFKLDIEK) [Alt06A] | 10 | 
19 | KLWHS-Nle-IP-Nle-GRDAK (KLWHS[Nle]IP[Nle]GRDAK) [Alt24A] | 40 | 
20 | KLFQVAETLPQEVLDK [Alt17] | 30 | 
21 | SYNVAKAGCIHLAK [Alt22] | 46 | 
22 | KRSLLVFAVRSSMELRK [Alt27] | 40 | 
23 | KKYAGVFVSTGTLGGGK [Alt18] | 50 | 
24 | DITYVATATLPNYSR [Alt02A] | 30 | 

Row | Substance | % responders [%] | individuals showing a response (responders out of 50 individuals)
25 | NWLTLHTAALGPTAK [Alt31] | 58 | 
26 | KQLLMLSAKR-Nle-KVAFK [Alt05C] | 16 | 
27 | KDITYVATATLPNY [Alt02] | 36 | 
28 | TYYNSLGFNIKATNGGTL [Alt01] | 20 | 
29 | KLWHSMIP-Nle-GRDAK (KLWHSMIP[Nle]GRDAK) [Alt24C] | 36 | 
30 | KYRRVVRAGVKVAQTAR [Alt34A] | 38 | 
31 | LAITYNSRAEGAEK [Alt20] | 38 | 
32 | HEIYVVDRVSAP [Alt30] | 36 | 
33 | KQLLMLSAKRMKVAFK [Alt05] | 2 | 
34 | AEVYQKLKALAKKTYGQ [Alt13A] | 86 | 34/50
35 | KLWHSMIPMGRDAK [Alt24] | 34 | 
36 | GYTGKIKIAMDVASSE [Alt15] | 56 | 
37 | KRSLLVFAVRSS-Nle-ELRK [Alt27A] | 42 | 
38 | GWGV-Nle-VSHRSGET (GWGV[Nle]VSHRSGET) [Alt14A] | 56 | 
39 | KQLL-Nle-LSAKRMKVAFK (KQLL[Nle]LSAKRMKVAFK) [Alt05B] | 12 | 
40 | SLGFNIKATNGGTLD [Alt01A] | 26 | 
41 | KSAFRSIEPELTVYK [Alt10A] | 34 | 
42 | KYWLYFYKLHPEK [Alt32] | 36 | 
43 | KQLL-Nle-LSAKR-Nle-KVAFK (KQLL[Nle]LSAKR[Nle]KVAFK) [Alt05A] | 10 | 
44 | KTYVATATLPNY [Alt02B] | 22 | 
45 | IFRSLSKEDPDY [Alt04] | 6 | 
46 | SAKRMKVAFKLDIEK [Alt06] | 16 | 
47 | KKVSMAIAKAAAAEK [Alt11] | 36 | 
48 | NEWRDFARVNSISP [Alt23] | 40 | 
